Assay results as given in patent US9701689B2, “Substituted pyridines and pyridazines as CCR10 receptor inhibitors” (KYOWA HAKKO KIRIN CO., LTD., priority 2012, dated 2017).

Target: T1, human CCR10 (Homo sapiens, UniProt P46092)
T1 construct: expressed in transfected cells; host or cells: KJMGER8 cells (Namalwa cell-derived line), beta-estradiol-induced; hCCR10G16 cells
T1 sequence (P46092 1-362): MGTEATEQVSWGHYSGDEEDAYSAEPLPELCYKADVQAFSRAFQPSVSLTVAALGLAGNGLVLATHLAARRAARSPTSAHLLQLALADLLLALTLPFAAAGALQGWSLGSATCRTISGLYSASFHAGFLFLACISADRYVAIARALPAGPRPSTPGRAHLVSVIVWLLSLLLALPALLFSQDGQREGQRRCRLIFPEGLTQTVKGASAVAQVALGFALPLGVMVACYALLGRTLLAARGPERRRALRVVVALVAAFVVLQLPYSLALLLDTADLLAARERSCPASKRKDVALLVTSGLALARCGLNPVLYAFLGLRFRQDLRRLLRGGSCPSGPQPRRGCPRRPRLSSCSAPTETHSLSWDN
Test: CCR10 antagonistic effect: calcium assay of human CCR10 (CTACK-induced increase of intracellular calcium in hCCR10G16 cells)
Assay type: cell-based
Details: at a concentration of not more than 1000 nmol/L; human CCR10-expressing hCCR10G16 cells, 300 nmol/L CTACK added; read-out: inhibition of increase in the calcium ion concentration
Experimental: [Experimental Example 1] CCR10 Antagonistic Effect
(1) Preparation of Human CCR10-Inducible Expression Plasmid
A CCR10-inducible expression plasmid was prepared according to a known method [Analytical Biochemistry, 2006, vol. 400, page 163]. A DNA encoding human CCR10 was obtained by PCR. Using human chromosome DNA (100 ng; manufactured by Clontech) as a template, synthetic DNA having the sequences depicted in SEQ ID NOs: 1 and 2 as a human CCR10 cDNA specific primer, and Pyrobest DNA Polymerase (manufactured by TAKARA SHUZO CO. LTD.) as an enzyme, a DNA encoding human CCR10 was obtained by PCR. As a buffer for PCR, the buffer attached to the enzyme to be used, which was diluted 10-fold with deionized water, was used. Using Thermal Cycler DNA Engine (manufactured by MJ Research), PCR was performed by 35 cycles of reactions composed of an incubation at 94° C. for 30 sec, at an anneal temperature of 58° C. for 30 sec, and at 72° C. for 1 min after treating at 90° C. for 2 min.
The amplified PCR fragment was cleaved with HindIII and NotI, then a human CCR10 DNA fragment was recovered by the agarose gel electrophoresis method. The fragment was incorporated between the corresponding restriction enzyme sites (HindIII-NotI) of an inducible expression vector to construct a human CCR10-inducible expression plasmid.
Using a primer specific to the sequence of plasmid (synthetic DNA having the sequences shown in SEQ ID NOs: 3 and 4), the sequence of human CCR10 DNA region was determined. For the determination of the base sequence, DNA Sequencer 377 (manufactured by Perkin Elmer. Co.) and a reaction kit (ABI Prism (registered trade mark) BigDye (registered trade mark) Terminator Cycle Sequencing Ready Reaction kit: manufactured by Applied Biosystems) were used. The sequence of human CCR10 DNA was identical with the sequence (NM 016602) registered in GenBank.
(2) Preparation of Human CCR10 Expressing Cell for Calcium Assay
Cells for detecting signals from human CCR10 in calcium assay were prepared. According to a known method [Analytical.Biochemistry (Analy Biochem), 2006, vol. 400, page 163], human CCR10-inducible expressing cells whose host cell is KJMGER8 cell (Namalwa cell-derived cell line) were prepared. Human CCR10-inducible expression plasmid produced above and Gα16 expression plasmid were co-transfected into the KJMGER8 cells by the electroporation method [Cytotechnology, 1990, vol. 3, page 133], whereby the signals from human CCR10 could be detected by calcium assay (hereinafter to be referred to as hCCR10G16 cell). A Ga16 expression plasmid was produced by incorporating human Ga16 DNA into expression vector pAMoh (WO 03/087366). Expression of human CCR10 was induced by cultivating hCCR10G16 cells in the presence of 10 nmol/L β-estradiol (manufactured by Sigma Ltd.) for 24 hr.
(3) Calcium Assay of Human CCR10
Cells expressing human CCR10 induced by the above-mentioned method were suspended in RPMI1640 medium (manufactured by Invitrogen), and adjusted to a cell density of 2×10^6 cells/mL. The cells were blended with an equivalent volume of a loading buffer prepared according to the attached protocol of Fluo-3 calcium assay kit (manufactured by Molecular Devices Corporation), and incubated at 37° C. for several dozen minutes. This mixture was dispensed to a 384 well clear-bottom plate (manufactured by Corning Incorporated) at 40 μL/well. To this plate was added a solution of the test compound in dimethyl sulfoxide (DMSO), which was diluted 37-fold with RPMI1640 medium, at 5 μL/well, and the mixture was incubated at 37° C. for 30 min. 300 nmol/L human recombinant CTACK (manufactured by R&D Systems, Inc.) diluted with RPMI1640 medium containing 1 w/v % bovine serum albumin (manufactured by Sigma Ltd.) was added at 5 μL/well and, variation of intracellular calcium ion concentration for about 5 min after the addition was measured by a screening apparatus (FDSS; manufactured by Hamamatsu Photonics K.K.). […]

Inhibition at up to 1 µM, ≥ 50%:
COc1ccc(Nc2c(C(=O)N3CCC(c4ccc(F)cc4)CC3)cnc(S(N)(=O)=O)c2Cl)c(Cl)c1 [Compound 179, 3-chloro-4-(2-chloro-4-methoxyphenylamino)-5-[4-(4-fluorophenyl)piperidine-1-carbonyl]pyridine-2-sulfonamide]
Cc1cc(F)ccc1Nc1cc(S(=O)(=O)N2CCC(C(N)=O)CC2)ncc1C(=O)N1CCC(c2ccc(F)cc2)CC1 [Compound 138, 1-{4-(4-fluoro-2-methylphenylamino)-5-[4-(4-fluorophenyl)piperidine-1-carbonyl]pyridin-2-ylsulfonyl}piperidine-4-carboxamide]
Cc1c(S(N)(=O)=O)ncc(C(=O)N2CCC(c3ccc(F)cc3)CC2)c1NCc1cccc(C#N)c1 [Compound 228, 4-(3-cyanobenzylamino)-5-[4-(4-fluorophenyl)piperidine-1-carbonyl]-3-methylpyridine-2-sulfonamide]
Cc1cc(Cl)ccc1Nc1c(C(=O)N2CCC(c3ccc(F)cc3)CC2)cnc(S(N)(=O)=O)c1Cl [Compound 177, 3-chloro-4-(4-chloro-2-methylphenylamino)-5-[4-(4-fluorophenyl)piperidine-1-carbonyl]pyridine-2-sulfonamide]
Cc1cc(Cl)ccc1Nc1c(C(=O)N2CCC(c3ccc(F)cc3)CC2)cnc(S(N)(=O)=O)c1C [Compound 196, 4-(4-chloro-2-methylphenylamino)-5-[4-(4-fluorophenyl)piperidine-1-carbonyl]-3-methylpyridine-2-sulfonamide]
COc1ccc(Nc2cc(S(N)(=O)=O)ncc2C(=O)N2CCC(c3ccc(F)cc3)CC2)c(C)c1 [Compound 78, 5-[4-(4-fluorophenyl)piperidine-1-carbonyl]-4-(4-methoxy-2-methylphenylamino)pyridine-2-sulfonamide]
Cc1cc(F)ccc1Nc1cc(S(=O)(=O)N2CCCC2)ncc1C(=O)N1CCC(c2ccc(F)cc2)CC1 [Compound 119, [4-(4-fluoro-2-methylphenylamino)-6-(pyrrolidin-1-ylsulfonyl)pyridin-3-yl][4-(4-fluorophenyl)piperidin-1-yl]methanone]
N#Cc1ccc(C(F)(F)F)cc1Nc1c(C(=O)N2CCC(c3ccc(F)cc3)CC2)cnc(S(N)(=O)=O)c1Cl [Compound 257, 3-chloro-4-[2-cyano-5-(trifluoromethyl)phenylamino]-5-[4-(4-fluorophenyl)piperidine-1-carbonyl]pyridine-2-sulfonamide]
Cc1cc(NS(=O)(=O)c2ncc(C(=O)N3CCC(c4ccc(F)cc4)CC3)c(Nc3ccc(F)cc3C)c2Cl)on1 [Compound 41, 3-chloro-4-(4-fluoro-2-methylphenylamino)-5-[4-(4-fluorophenyl)piperidine-1-carbonyl]-N-(3-methylisoxazol-5-yl)pyridine-2-sulfonamide]
NS(=O)(=O)c1ncc(C(=O)N2CC(c3ccc(F)cc3)C2)c(NC2(c3ccccc3)CC2)c1Cl [Compound 330, 3-chloro-5-[3-(4-fluorophenyl)azetidine-1-carbonyl]-4-(1-phenylcyclopropylamino)pyridine-2-sulfonamide]
Cc1c(Cl)cccc1Nc1cc(S(N)(=O)=O)ncc1C(=O)N1CCC(c2ccc(F)cc2)CC1 [Compound 57, 4-(3-chloro-2-methylphenylamino)-5-[4-(4-fluorophenyl)piperidine-1-carbonyl]pyridine-2-sulfonamide]
Cc1cc(F)ccc1Nc1cc(S(=O)(=O)Nc2ccn(C)n2)ncc1C(=O)N1CCC(c2ccc(F)cc2)CC1 [Compound 153, 4-(4-fluoro-2-methylphenylamino)-5-[4-(4-fluorophenyl)piperidine-1-carbonyl]-N-(1-methyl-1H-pyrazol-3-yl)pyridine-2-sulfonamide]
Cc1c(S(N)(=O)=O)ncc(C(=O)N2CCC3(CC2)COc2ccccc23)c1NCc1ccccc1 [Compound 261, 4-(benzylamino)-3-methyl-5-(2H-spiro[benzofuran-3,4′-piperidine]-1′-ylcarbonyl)pyridine-2-sulfonamide]
Cc1c(Cl)cccc1Nc1c(C(=O)N2CCC(c3ccc(F)cc3)CC2)cnc(S(N)(=O)=O)c1Cl [Compound 180, 3-chloro-4-(3-chloro-2-methylphenylamino)-5-[4-(4-fluorophenyl)piperidine-1-carbonyl]pyridine-2-sulfonamide]
Cc1c(S(=O)(=O)Nc2ccon2)ncc(C(=O)N2CCC(c3ccc(F)cc3)CC2)c1Nc1cccc(F)c1Cl [Compound 272, 4-(2-chloro-3-fluorophenylamino)-5-[4-(4-fluorophenyl)piperidine-1-carbonyl]-N-(isoxazol-3-yl)-3-methylpyridine-2-sulfonamide]
Cc1cc(F)ccc1Nc1cc(S(=O)(=O)Nc2cncs2)ncc1C(=O)N1CCC(c2ccc(F)cc2)CC1 [Compound 155, 4-(4-fluoro-2-methylphenylamino)-5-[4-(4-fluorophenyl)piperidine-1-carbonyl]-N-(thiazol-5-yl)pyridine-2-sulfonamide]
COC1(c2ccc(F)cc2)CCN(C(=O)c2cnc(S(N)(=O)=O)c(Cl)c2Nc2cccc(Cl)c2)CC1 [Compound 306, 3-chloro-4-(3-chlorophenylamino)-5-[4-(4-fluorophenyl)-4-methoxypiperidine-1-carbonyl]pyridine-2-sulfonamide]
Cc1cc(Nc2cc(S(=O)(=O)NC(=O)NC(C)C)ncc2C(=O)N2CCC(c3ccc(F)cc3)CC2)c(C)cc1Cl [Compound 18, 4-(4-chloro-2,5-dimethylphenylamino)-5-[4-(4-fluorophenyl)piperidine-1-carbonyl]-N-(isopropylcarbamoyl)pyridine-2-sulfonamide]
CNS(=O)(=O)c1cc(Nc2ccc(F)cc2C)c(C(=O)N2CCC(c3ccc(F)cc3)CC2)cn1 [Compound 111, 4-(4-fluoro-2-methylphenylamino)-5-[4-(4-fluorophenyl)piperidine-1-carbonyl]-N-methylpyridine-2-sulfonamide]
Cc1cc(F)ccc1Nc1cc(S(=O)(=O)Nc2onc(C)c2C)ncc1C(=O)N1CCC(c2ccc(F)cc2)CC1 [Compound 158, N-(3,4-dimethylisoxazol-5-yl)-4-(4-fluoro-2-methylphenylamino)-5-[4-(4-fluorophenyl)piperidine-1-carbonyl]pyridine-2-sulfonamide]
